Measurements taken from the NIST ThermoML archive (doi:10.1021/acs.jced.6b00713).
± gives the expanded uncertainty stated by the source.

What was measured:
[1] = 298.15 K; 101.33 kPa; Liquid; Vibrating tube method
[2] = Boiling temperature at pressure P; details: 101.3 kPa; Liquid; Ebulliometric method (Recirculating still)
[3] = refractive index (Na D-line) (dimensionless); details: 293.15 K; 101.33 kPa; Liquid; Standard Abbe refractometry

| SMILES | mass density [1] [kg/m3] | Boiling temperature at pressure P [2] [°C] | refractive index [3] |
| --- | --- | --- | --- |
| Cc1ccccn1 [2-methylpyridine] | 940.5 ± 0.1 | 129.1 ± 0.2 | 1.4985 ± 0.0007 |
| O [water] | – | 100.10 ± 0.2 | 1.3322 ± 0.0007 |
